Laboratory results taken from patent publication US11634381B2, “RUNX2 transcription factor inhibitors and uses thereof” (University of Maryland, Baltimore, priority 2015, dated 2023).

Molecular target: RUNX2 (Homo sapiens, UniProt Q13950)
Test: D-ELISA DNA binding assay
Set-up: endogenous in cells
Conditions: read-out: IC50 in D-ELISA DNA binding assays (RUNX2 DNA binding)
Protocol: A microtiter plate-based D-ELISA was performed as described. Briefly, nuclear proteins were isolated from HBME-1 cells that express all three RUNX proteins and bound to double-stranded DNA oligonucleotides of human osteocalcin and MMP13 (forward primer: 5′-TTCTACCACAAACCACACTCGTTCTACCACAAACCACACTCGTTCTACCACAAACCACACTCG-Biotin-3′, SEQ ID NO: 4 and reverse primer: 5′-CGAGTGTGGTTTGTGGTAGAACGAGTGTGGTTTGTGGTAGAACGAGTGTGGTTTGTGGTAGAA-Biotin-3′, SEQ ID NO: 5). Vehicle (0.05% DMSO) or compound 1 at different concentrations were incubated with the proteins and DNA oligonucleotide mixture in Avidin-coated 96-well plates. DNA-bound RUNX proteins were captured with specific antibodies (Cell Signaling Technologies). Primary and secondary antibody dilution was 1:500 and 1:10,000, respectively.

RUNX2, sequence (Q13950 whole entry): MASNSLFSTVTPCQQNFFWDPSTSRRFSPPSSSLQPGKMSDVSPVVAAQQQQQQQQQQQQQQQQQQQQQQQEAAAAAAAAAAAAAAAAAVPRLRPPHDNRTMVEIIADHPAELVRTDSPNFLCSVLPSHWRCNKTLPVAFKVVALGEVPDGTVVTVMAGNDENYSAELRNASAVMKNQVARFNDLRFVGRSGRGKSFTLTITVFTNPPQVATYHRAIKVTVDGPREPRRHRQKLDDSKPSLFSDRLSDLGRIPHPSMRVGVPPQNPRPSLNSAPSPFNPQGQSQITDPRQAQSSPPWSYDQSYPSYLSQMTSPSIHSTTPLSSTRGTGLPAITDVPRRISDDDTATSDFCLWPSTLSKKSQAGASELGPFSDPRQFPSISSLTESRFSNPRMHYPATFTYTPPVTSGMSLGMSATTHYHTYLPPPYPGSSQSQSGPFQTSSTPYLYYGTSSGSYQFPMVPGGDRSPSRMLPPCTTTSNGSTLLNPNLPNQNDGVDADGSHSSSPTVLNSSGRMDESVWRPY

O=C(O)C1C2C=CC(C2)C1C(=O)Nc1ccc(Cl)c(Cl)c1 (stereo not shown) [compound 1, 3-(N-(3,4-dichlorophenyl)carbamoyl)-5-norbornene-2-carboxylic acid]
IC50: 10 nM
